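Compound exposure: 48 hours, 5 concentrations, 96-well plates. GI50 marks 50% less growth.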 The source made the active and inactive calls. No stated cut-off is given here; in the data, active = GI50 up to about 1.1 µM and inactive = higher.
Experiments:
Experiment in all cases: NCI-60 cell line screen, 48 h
[1] = test system: UACC-257
[2] = test system: IGROV-1
[3] = test system: TK-10
[4] = test system: HL-60
[5] = test system: SF-268
[6] = test system: DU-145
[7] = test system: KM12
[8] = test system: EKVX
[9] = test system: SK-MEL-5
[10] = test system: SK-OV-3
[11] = test system: MOLT-4
[12] = test system: SF-539
[13] = test system: CAKI-1
[14] = test system: A498
[15] = test system: RXF 393
[16] = test system: NCI-H226
[17] = test system: Hs-578T
[18] = test system: M14
[19] = test system: HT-29
[20] = test system: SK-MEL-2

SMILES	GI50 [1]	GI50 [2]	GI50 [3]	GI50 [4]	GI50 [5]	GI50 [6]	GI50 [7]	GI50 [8]	GI50 [9]	GI50 [10]	GI50 [11]	GI50 [12]	GI50 [13]	GI50 [14]	GI50 [15]	GI50 [16]	GI50 [17]	GI50 [18]	GI50 [19]	GI50 [20]
CCc1nc(Cl)nc(Cl)c1Cl	0.547 µM (active)	3.72 µM (inactive)	6.93 µM (inactive)	1.36 µM (inactive)	0.54 µM (active)	9.06 µM (inactive)	3.48 µM (inactive)	11.4 µM (inactive)	2.56 µM (inactive)	6.41 µM (inactive)	0.332 µM (active)	3.36 µM (inactive)	0.193 µM (active)	4.94 µM (inactive)	1.74 µM (inactive)	6.5 µM (inactive)	2.6 µM (inactive)	1.28 µM (inactive)	0.394 µM (active)	–
COc1ccc(Nc2nc3ccccc3nc2C(=O)O)cc1OC	98.2 µM (inactive)	98.4 µM (inactive)	82.8 µM (inactive)	88.1 µM (inactive)	41 µM (inactive)	> 100 µM (inactive)	66.8 µM (inactive)	61.7 µM (inactive)	28.5 µM (inactive)	64.4 µM (inactive)	65 µM (inactive)	> 100 µM (inactive)	29.6 µM (inactive)	21.3 µM (inactive)	74.1 µM (inactive)	57 µM (inactive)	> 100 µM (inactive)	> 100 µM (inactive)	> 100 µM (inactive)	–
CCOC(=O)c1sc2c(c1OC(=O)c1ccc(OC)cc1)c(=O)n(-c1ccccc1)c(=S)n2-c1ccccc1	> 100 µM (inactive)	> 100 µM (inactive)	> 100 µM (inactive)	> 100 µM (inactive)	> 100 µM (inactive)	> 100 µM (inactive)	> 100 µM (inactive)	> 100 µM (inactive)	27.6 µM (inactive)	> 100 µM (inactive)	> 100 µM (inactive)	77.8 µM (inactive)	> 100 µM (inactive)	17.1 µM (inactive)	> 100 µM (inactive)	24.9 µM (inactive)	> 100 µM (inactive)	> 100 µM (inactive)	> 100 µM (inactive)	–
CC1(c2ccc(Cl)cc2)c2ccccc2C(=O)N1CCCN1C(=O)c2ccccc2C1=O (stereo not given)	51.8 µM (inactive)	9.33 µM (inactive)	> 100 µM (inactive)	28.5 µM (inactive)	40.6 µM (inactive)	40.3 µM (inactive)	20.9 µM (inactive)	3.36 µM (inactive)	16.4 µM (inactive)	31.2 µM (inactive)	29.5 µM (inactive)	–	86.3 µM (inactive)	> 100 µM (inactive)	29.4 µM (inactive)	22.7 µM (inactive)	35.4 µM (inactive)	–	32.2 µM (inactive)	20.3 µM (inactive)
Cc1ccc(C2=NOC(=O)[C@@H]3CCCC[C@@H]23)cc1	> 100 µM (inactive)	> 100 µM (inactive)	> 100 µM (inactive)	> 100 µM (inactive)	> 100 µM (inactive)	27.2 µM (inactive)	> 100 µM (inactive)	> 100 µM (inactive)	> 100 µM (inactive)	> 100 µM (inactive)	> 100 µM (inactive)	> 100 µM (inactive)	> 100 µM (inactive)	> 100 µM (inactive)	> 100 µM (inactive)	> 100 µM (inactive)	> 100 µM (inactive)	> 100 µM (inactive)	> 100 µM (inactive)	–
CCOC(=O)C(=[N+]=[N-])C(=O)C[N+]12CCN(CC1)CC2	> 100 µM (inactive)	> 100 µM (inactive)	> 100 µM (inactive)	–	> 100 µM (inactive)	> 100 µM (inactive)	> 100 µM (inactive)	–	> 100 µM (inactive)	> 100 µM (inactive)	> 100 µM (inactive)	–	> 100 µM (inactive)	> 100 µM (inactive)	> 100 µM (inactive)	> 100 µM (inactive)	> 100 µM (inactive)	> 100 µM (inactive)	> 100 µM (inactive)	> 100 µM (inactive)
CC(=O)c1c2c(cc3c1CC1(Cc4cc5c(cc4C1=O)CCC5)C3)CCC2 (stereo not given)	13.2 µM (inactive)	> 100 µM (inactive)	> 66.1 µM (inactive)	7.21 µM (inactive)	> 81.5 µM (inactive)	> 72.3 µM (inactive)	53.5 µM (inactive)	36.1 µM (inactive)	12.1 µM (inactive)	> 87.7 µM (inactive)	4.95 µM (inactive)	> 100 µM (inactive)	17.3 µM (inactive)	> 100 µM (inactive)	–	34.3 µM (inactive)	> 100 µM (inactive)	> 68.1 µM (inactive)	54.2 µM (inactive)	79.8 µM (inactive)

Source: ChEMBL document CHEMBL1201862, “PubChem BioAssay data set” (2004)
